Experimental data: patent US20080200563A1, “Use of Compounds Containing Thiol Groups as Efflux Pump Inhibitors” (ThioMatrix Forschungs- und Beratungs- GmbH, priority 2004, published 2008)

Target: T1, efflux pump P-glycoprotein (Cavia porcellus, UniProt H0VLE6)
T1 construct: The small intestine of guinea pigs was immediately removed after sacrificing animals, cut lengthwise and rinsed; from tissue; host or cells: guinea pig small intestinal mucosa mounted in Ussing chambers
Experiment: Permeation studies with rhodamine 123 across guinea pig small intestinal mucosa in Ussing chambers (efflux pump inhibition)
Type: in vitro ADME
Conditions: 0.5% (m/v)
Procedure: The small intestine of guinea pigs was immediately removed after sacrificing animals, cut lengthwise and rinsed with sterile 0.9% sodium chloride solution. Thereafter it was mounted in Ussing chambers. The incubation medium was a 50 mM Bis-Tris (bis[2-hydroxyethyl]imino-tris[hydroxymethyl]methane) pH 6.0 buffer containing 250 mM NaCl, 2.6 mM MgSO4, 10 mM KCl, 40 mM glucose and 50 mM NaHCO3. […] J Pharm Sei. […] At predetermined time points samples were withdrawn from the acceptor chamber—facing to the basolateral site of the mucosa and replaced by fresh incubation medium. […] In addition all permeation studies described above were also performed with the mucosa being mounted in the opposite direction, so that the donor compartment is facing the basolateral site of the mucosa. In parallel, the same experiments were performed with the only difference that the donor- and acceptor compartment contained additionally glutathione in a concentration of 0.5%.
In order to compare the inhibitory effect of glutathione and/or polythiol-compounds with well-known inhibitors on efflux pumps of the gastrointestinal mucosa, they were tested in parallel.

T1 sequence (H0VLE6 1-1243): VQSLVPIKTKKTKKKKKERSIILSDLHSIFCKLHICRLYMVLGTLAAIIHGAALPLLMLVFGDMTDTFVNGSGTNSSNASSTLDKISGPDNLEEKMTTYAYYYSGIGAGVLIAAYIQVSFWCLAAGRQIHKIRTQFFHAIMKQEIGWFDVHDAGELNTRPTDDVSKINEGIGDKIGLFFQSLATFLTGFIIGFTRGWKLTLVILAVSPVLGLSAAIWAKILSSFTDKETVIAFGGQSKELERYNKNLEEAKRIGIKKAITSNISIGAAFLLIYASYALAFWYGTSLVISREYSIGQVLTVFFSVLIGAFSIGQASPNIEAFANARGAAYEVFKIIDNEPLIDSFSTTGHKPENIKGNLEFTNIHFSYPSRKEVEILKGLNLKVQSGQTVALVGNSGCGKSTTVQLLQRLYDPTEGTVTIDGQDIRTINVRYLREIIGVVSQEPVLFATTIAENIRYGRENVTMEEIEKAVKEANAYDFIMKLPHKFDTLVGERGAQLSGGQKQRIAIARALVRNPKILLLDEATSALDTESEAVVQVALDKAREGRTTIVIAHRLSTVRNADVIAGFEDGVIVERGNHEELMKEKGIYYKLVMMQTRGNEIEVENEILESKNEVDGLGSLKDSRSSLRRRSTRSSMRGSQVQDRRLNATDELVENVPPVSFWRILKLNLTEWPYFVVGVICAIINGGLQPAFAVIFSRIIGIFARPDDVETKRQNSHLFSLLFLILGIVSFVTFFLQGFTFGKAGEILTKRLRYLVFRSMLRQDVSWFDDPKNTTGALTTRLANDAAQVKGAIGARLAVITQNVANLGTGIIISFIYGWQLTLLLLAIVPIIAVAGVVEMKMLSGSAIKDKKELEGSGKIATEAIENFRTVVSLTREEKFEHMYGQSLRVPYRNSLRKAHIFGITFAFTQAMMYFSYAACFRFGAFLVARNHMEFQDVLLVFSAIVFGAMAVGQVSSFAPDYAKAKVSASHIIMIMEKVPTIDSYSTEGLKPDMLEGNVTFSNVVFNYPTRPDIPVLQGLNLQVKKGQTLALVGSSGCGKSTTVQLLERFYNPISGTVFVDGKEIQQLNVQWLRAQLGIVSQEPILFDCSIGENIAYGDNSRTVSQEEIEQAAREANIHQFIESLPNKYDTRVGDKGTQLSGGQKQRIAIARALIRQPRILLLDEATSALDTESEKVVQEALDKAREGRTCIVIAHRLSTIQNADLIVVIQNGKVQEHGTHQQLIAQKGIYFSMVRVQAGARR

effect on rhodamine permeation at 4° C. compared with 37° C. (4° C.): dramatically lower effect
permeation of rhodamine in the absorptive direction in the presence of the compound (37° C., apical to basolateral): significantly improved
permeation of rhodamine in the secretory direction in the presence of the compound (37° C., basolateral to apical): significantly reduced
efflux pump inhibitory effect (37° C., p<0.05, rhodamine 123): statistically significant
Structure (SMILES): N[C@@H](CCC(=O)N[C@@H](CS)C(=O)NCC(=O)O)C(=O)O [Glutathione, glutathione]
